# Laboratory results as given in US7897602B2, “Indolinone compounds as kinase inhibitors” (Development Center for Biotechnology, priority 2009, dated 2011).
# pIC50: −log10 of the molar value.
# Legend:
# Type in all cases: biochemical
# Aurora A kinase = target: T1, Aurora A kinase (Homo sapiens, UniProt O14965); test: Aurora A kinase assay ([γ-33P]ATP, CHOCKtide substrate); conditions: for inhibition at 1 µM: 1.0 μM test compound
# T1 construct: purchased Upstate
# T1 sequence (O14965 1-403): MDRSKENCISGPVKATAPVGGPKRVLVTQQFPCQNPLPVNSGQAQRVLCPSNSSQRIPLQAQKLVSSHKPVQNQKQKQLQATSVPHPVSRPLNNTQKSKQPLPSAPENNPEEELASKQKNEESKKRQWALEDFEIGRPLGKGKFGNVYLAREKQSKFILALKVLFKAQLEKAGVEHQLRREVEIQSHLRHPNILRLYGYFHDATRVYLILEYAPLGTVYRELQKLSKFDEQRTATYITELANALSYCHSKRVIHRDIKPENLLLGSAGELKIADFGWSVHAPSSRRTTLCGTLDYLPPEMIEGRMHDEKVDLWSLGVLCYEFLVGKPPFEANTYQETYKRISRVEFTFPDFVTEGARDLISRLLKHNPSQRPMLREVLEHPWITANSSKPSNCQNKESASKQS
# Protocol: (§1) Inhibition of Aurora Kinase by the compounds disclosed herein was determined by incubating Aurora kinase, substrate, and a test compound together for a period of time followed by quantifying the resultant phosphorylated product. Specifically, in a well of a 96-well round bottom plate, 25 μL of a reaction mixture containing (1) a test compound disclosed herein (diluted from 9 μM to the desired final concentration), [γ-33P]ATP/ATP mix (10 μM), CHOCKtide (1 μg, Genesis Biotech Inc.), and Aurora-A (1 ng, purchased from Upstate); or (2) a test compound disclosed herein (diluted from 9 μM to the desired final concentration), [γ-33P]ATP/ATP mix (40 μM), CHOCKtide (1 μg, Genesis Biotech Inc.), and Aurora-B (2.5 ng, purchased from Cell signaling); was prepared and incubated at 33° C. for 30 minutes. The reaction was then stopped by adding 5 μL of 3% phosphoric acid. The resultant solution (30 μL) was later harvested by a UniFilter Plate GF/B (PerkinElmer) followed by adding 30 μL of the scintillation cocktail (MicroScint 20, PerkinElmer) to the well. The radioactivity retained on the filter membrane was measured by a luminescence counter (PerkinElmer). IC50 value is defined as the concentration of the test compound which achieves a half-maximal inhibition of the kinase activity.
# Aurora B kinase = target: T2, Aurora B kinase (Homo sapiens, UniProt Q96GD4); test: Aurora B kinase assay ([γ-33P]ATP, CHOCKtide substrate); conditions: 1.0 μM test compound
# T2 construct: purchased Cell signaling
# T2 sequence (Q96GD4 whole entry): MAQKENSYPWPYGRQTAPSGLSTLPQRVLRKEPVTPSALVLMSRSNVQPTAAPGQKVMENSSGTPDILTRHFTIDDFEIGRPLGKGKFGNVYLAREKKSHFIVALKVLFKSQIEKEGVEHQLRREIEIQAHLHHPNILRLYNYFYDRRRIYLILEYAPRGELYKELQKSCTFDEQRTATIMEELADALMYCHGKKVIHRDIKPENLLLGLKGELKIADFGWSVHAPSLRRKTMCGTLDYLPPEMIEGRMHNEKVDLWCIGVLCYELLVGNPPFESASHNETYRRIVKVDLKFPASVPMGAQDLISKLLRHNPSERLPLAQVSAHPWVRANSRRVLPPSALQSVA
# Protocol: as §1
# c-Met kinase = target: T3, c-Met kinase (Homo sapiens, UniProt P08581); test: c-Met kinase assay (33P incorporation into Poly(Glu-Tyr)); conditions: 500 nM test compound
# T3 construct: recombinant N-terminal 6×His-tagged c-Met kinase domain construct expressed from baculovirus; 6xHis (N); made in house
# T3 sequence (P08581 1078-1345 limits assumed): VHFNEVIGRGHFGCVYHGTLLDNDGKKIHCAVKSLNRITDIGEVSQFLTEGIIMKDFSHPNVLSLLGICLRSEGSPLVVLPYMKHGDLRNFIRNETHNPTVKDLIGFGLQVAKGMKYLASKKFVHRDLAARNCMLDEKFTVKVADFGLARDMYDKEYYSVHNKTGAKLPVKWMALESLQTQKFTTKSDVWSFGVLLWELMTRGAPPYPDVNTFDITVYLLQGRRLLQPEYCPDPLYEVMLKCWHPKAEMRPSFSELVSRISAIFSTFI
# Protocol: Inhibition of c-Met kinase activity by compounds disclosed herein was quantified by measuring the amount of [^33P] incorporated into the substrate in the presence of a test compound. Briefly, a reaction mixture of 25 μL final volume containing 5 ng of c-Met kinase (obtained by purifying recombinant N-terminal 6×His-tagged c-Met kinase domain construct expressed from baculovirus), 1 μg of the substrate (Poly (Glu-Tyr, 4:1, Sigma)), kinase reaction buffer (20 mM MOPS pH 7.0, 1 mM EDTA, 5% glycerol, 0.01% Brij-35, 0.1% β-mercaptoethanol, 1 mg/mL BSA, 100 μM ATP, 0.1 μCi per well [^33P]-γ-ATP (2,500-3,000 Ci/mmol)), and a test compound (500 nM, diluted with 4% DMSO) or DMSO (as the control) was incubated at 30° C. for 30 minutes. The reaction was stopped by adding 5 μL of 3% phosphoric acid solution. The resultant reaction solution was then harvested onto a filter plate (UniFilter-96 GF/B, PerkinElmer), washed 20 times for 5 min with d.d. H2O, and followed by the addition of 30 μL of MicroScint™-20 Cocktail (PerkinElmer). The plate was then sealed and counted using a TopCount scintillation detector (PerkinElmer). The percentage of inhibition rate of the test compound was calculated by dividing the retained radioactivity of the test sample with the retained radioactivity of the control sample and shown in Table 3.
Structure (SMILES),inhibition at 1 µM (Aurora A kinase),inhibition at 1 µM (Aurora B kinase),inhibition at 0.5 µM (c-Met kinase),pIC50 (Aurora A kinase)
"COc1ccc2c(c1)/C(=C/c1[nH]c3c(c1CCC(=O)O)C(=O)CCCC3)C(=O)N2 [DCB-70155, (Z)-3-(2-((5-methoxy-2-oxoindolin-3-ylidene)methyl)-4-oxo-1,4,5,6,7,8-hexahydrocyclohepta[b]pyrrol-3-yl)propanoic acid]",75.6%,10.7%,9.1%,
"CNC(=O)CCc1c(/C=C2\C(=O)Nc3ccc(S(=O)(=O)Cc4c(Cl)cccc4Cl)cc32)[nH]c2c1C(=O)CCC2 [DCB-70157, (Z)-3-(2-((5-(2,6-dichlorobenzylsulfonyl)-2-oxoindolin-3-ylidene)methyl)-4-oxo-4,5,6,7-tetrahydro-1H-indol-3-yl)-N-methylpropanamide]",13%,6.9%,85.6%,
"CC1(C)CC(=O)c2c([nH]c(/C=C3\C(=O)Nc4ccc(S(=O)(=O)Cc5c(Cl)cccc5Cl)cc43)c2CCC(=O)O)C1 [DCB-70159, (Z)-3-(2-((5-(2,6-dichlorobenzylsulfonyl)-2-oxoindolin-3-ylidene)methyl)-6,6-dimethyl-4-oxo-4,5,6,7-tetrahydro-1H-indol-3-yl)propanoic acid]",13.9%,-5.5%,81.3%,
"CC1(C)CC(=O)c2c([nH]c(/C=C3\C(=O)Nc4ccc(S(=O)(=O)N5CCc6ccccc65)cc43)c2CCC(=O)O)C1 [DCB-70161, (Z)-3-(2-((5-(indolin-1-ylsulfonyl)-2-oxoindolin-3-ylidene)methyl)-6,6-dimethyl-4-oxo-4,5,6,7-tetrahydro-1H-indol-3-yl)propanoic acid]",78.8%,14.6%,59.7%,
"COc1ccc2c(c1)/C(=C/c1[nH]c3c(c1CCC(=O)O)C(=O)CCC3)C(=O)N2 [DCB-70167, (Z)-3-(2-((5-methoxy-2-oxoindolin-3-ylidene)methyl)-4-oxo-4,5,6,7-tetrahydro-1H-indol-3-yl)propanoic acid]",86.4%,19.8%,11.8%,6.87
"CCOC(=O)CCc1c(/C=C2\C(=O)Nc3ccc(NS(=O)(=O)c4ccccc4)cc32)[nH]c2c1C(=O)CC(C)(C)C2 [DCB-70168, (Z)-ethyl 3-(6,6-dimethyl-4-oxo-2-((2-oxo-5-(phenylsulfonamido)indolin-3-ylidene)methyl)-4,5,6,7-tetrahydro-1H-indol-3-yl)propanoate]",53.4%,30.6%,12.7%,
"CCCCCCC#Cc1ccc2c(c1)NC(=O)/C2=C\c1[nH]c2c(c1CCC(=O)OCC)C(=O)CCC2 [DCB-70170, (Z)-ethyl 3-(2-((6-(oct-1-ynyl)-2-oxoindolin-3-ylidene)methyl)-4-oxo-4,5,6,7-tetrahydro-1H-indol-3-yl)propanoate]",10.5%,2.8%,13.1%,
"CCCCCCC#Cc1ccc2c(c1)NC(=O)/C2=C\c1[nH]c2c(c1CCC(=O)O)C(=O)CCC2 [DCB-70171, (Z)-3-(2-((6-(oct-1-ynyl)-2-oxoindolin-3-ylidene)methyl)-4-oxo-4,5,6,7-tetrahydro-1H-indol-3-yl)propanoic acid]",73%,17.4%,18.2%,
"CCCCCCC#Cc1ccc2c(c1)/C(=C/c1[nH]c3c(c1CCC(=O)OCC)C(=O)CCC3)C(=O)N2 [DCB-70172, (Z)-ethyl 3-(2-((5-(oct-1-ynyl)-2-oxoindolin-3-ylidene)methyl)-4-oxo-4,5,6,7-tetrahydro-1H-indol-3-yl)propanoate]",-3.1%,-3.2%,10.4%,
"CCOC(=O)CCc1c(/C=C2\C(=O)Nc3ccc(NC(=O)NC45CC6CC(CC(C6)C4)C5)cc32)[nH]c2c1C(=O)CCC2 [DCB-70174, Ethyl 3-(2-((Z)-(5-(3-(1-adamantanyl)ureido)-2-oxoindolin-3-ylidene)methyl)-4-oxo-4,5,6,7-tetrahydro-1H-indol-3-yl)propanoate]",2.4%,-11.4%,4%,
"CCN(CC)CCNC(=O)CCc1c(/C=C2\C(=O)Nc3ccc(S(=O)(=O)Cc4c(Cl)cccc4Cl)cc32)[nH]c2c1C(=O)CCC2 [DCB-70223, (Z)-3-(2-((5-(2,6-dichlorobenzylsulfonyl)-2-oxoindolin-3-ylidene)methyl)-4-oxo-4,5,6,7-tetrahydro-1H-indol-3-yl)-N-(2-(diethylamino)ethyl)propanamide]",68.5%,43.7%,,

# Results, then the compound that gave them:
inhibition at 1 µM (Aurora A kinase),inhibition at 1 µM (Aurora B kinase),inhibition at 0.5 µM (c-Met kinase),pIC50 (Aurora A kinase),Structure (SMILES)
-0.3%,2.8%,47.9%,,"CCOC(=O)CCc1c(/C=C2\C(=O)Nc3ccc(OC)cc32)[nH]c2c1C(=O)CCCC2 [DCB-70154, (Z)-ethyl 3-(2-((5-methoxy-2-oxoindolin-3-ylidene)methyl)-4-oxo-1,4,5,6,7,8-hexahydrocyclohepta[b]pyrrol-3-yl)propanoate]"
5.2%,6.1%,85.4%,,"CCOC(=O)CCc1c(/C=C2\C(=O)Nc3ccc(S(=O)(=O)Cc4c(Cl)cccc4Cl)cc32)[nH]c2c1C(=O)CC(C)(C)C2 [DCB-70158, (Z)-ethyl 3-(2-((5-(2,6-dichlorobenzylsulfonyl)-2-oxoindolin-3-ylidene)methyl)-6,6-dimethyl-4-oxo-4,5,6,7-tetrahydro-1H-indol-3-yl)propanoate]"
5%,6.1%,59.1%,,"CCOC(=O)CCc1c(/C=C2\C(=O)Nc3ccc(S(=O)(=O)N4CCc5ccccc54)cc32)[nH]c2c1C(=O)CC(C)(C)C2 [DCB-70160, (Z)-ethyl 3-(2-((5-(indolin-1-ylsulfonyl)-2-oxoindolin-3-ylidene)methyl)-6,6-dimethyl-4-oxo-4,5,6,7-tetrahydro-1H-indol-3-yl)propanoate]"
48.8%,13%,21.6%,,"CCOC(=O)CCc1c(/C=C2\C(=O)Nc3ccc(OC)cc32)[nH]c2c1C(=O)CCC2 [DCB-70166, (Z)-ethyl 3-(2-((5-methoxy-2-oxoindolin-3-ylidene)methyl)-4-oxo-4,5,6,7-tetrahydro-1H-indol-3-yl)propanoate]"
79.6%,31%,10.8%,,"CC1(C)CC(=O)c2c([nH]c(/C=C3\C(=O)Nc4ccc(NS(=O)(=O)c5ccccc5)cc43)c2CCC(=O)O)C1 [DCB-70169, (Z)-3-(6,6-dimethyl-4-oxo-2-((2-oxo-5-(phenylsulfonamido)indolin-3-ylidene)methyl)-4,5,6,7-tetrahydro-1H-indol-3-yl)propanoic acid]"
13.6%,-9.8%,13.7%,,"CCCCCCC#Cc1ccc2c(c1)/C(=C/c1[nH]c3c(c1CCC(=O)O)C(=O)CCC3)C(=O)N2 [DCB-70173, (Z)-3-(2-((5-(oct-1-ynyl)-2-oxoindolin-3-ylidene)methyl)-4-oxo-4,5,6,7-tetrahydro-1H-indol-3-yl)propanoic acid]"
30.7%,8.4%,17.3%,,"CCOC(=O)CCc1c(/C=C2\C(=O)Nc3ccc(NCc4ccc(OC)cc4)cc32)[nH]c2c1C(=O)CCC2 [DCB-70175, (Z)-ethyl 3-(2-((5-(4-methoxybenzylamino)-2-oxoindolin-3-ylidene)methyl)-4-oxo-4,5,6,7-tetrahydro-1H-indol-3-yl)propanoate]"
